Experimental data as given in article PMC10726347, “Discovery of Inhibitory Fragments That Selectively Target Spire2–FMN2 Interaction” (Journal of Medicinal Chemistry, 2023).
Where two headings read alike, the source gives them in different places.

What was measured:
KIND1 [1] = molecular target: T1, KIND1 (Homo sapiens, UniProt Q08AE8); experiment: FP competition assay with FITC-labeled FSI peptide, KIND1; assay type: binding; conditions: 2.44-2500 μM, 1.17 μM KIND1
T1 construct: His6 (N, cleaved yes); made in house; host or cells: E. coli BL21 (DE3)
Experimental: (§1) The probe was diluted in the buffer assay (25 mM Tris, pH 7.8, 100 mM NaCl, 2 mM DTT) and added to the preplated mixtures of protein/fragment solutions. […] Each experiment was performed in triplicate with four technical replications.
(§2) Establishment of fluorescence polarization assay
(§3) The establishment of the fluorescence polarization assay was done according to protocols […]
(§4) In the first step, the affinity of the fluorescently labelled reporter peptide (FSI-peptide, FITC- […]
(§5) concentrations of KIND1 or KIND2 domains. This yielded dose-response curves that allow us to calculate the Kd of FSI-peptide.
(§6) In the next step, the working concentration of the proteins was calculated. Typically, the concentration should be in a dynamic range (0.5-0.8). For calculations, the following equation f0 = (P − Pmin)/(Pmax − Pmin)
(§7) P – fluorescence polarization in the dynamic range (0.5 -0.8) , Pmin – average minimal fluorescence polarization, Pmax – average maximal fluorescence polarization,
(§8) Taking into account Kd values for the reporter peptide, the working concentration of the proteins were calculated as follows:
(§9) c = Kd(P − Pmin)/(Pmax − P) […]

KIND2 [2] = molecular target: T2, KIND2 (Homo sapiens, UniProt Q8WWL2); experiment: FP competition assay with FITC-labeled FSI peptide, KIND2; assay type: binding; design: His6 (N, cleaved yes); made in house; host or cells: E. coli BL21 (DE3); conditions: for IC50: FP competition; for KIND2/FSI inhibitory activity in words: FP assay
T2 sequence (Q8WWL2 18-207): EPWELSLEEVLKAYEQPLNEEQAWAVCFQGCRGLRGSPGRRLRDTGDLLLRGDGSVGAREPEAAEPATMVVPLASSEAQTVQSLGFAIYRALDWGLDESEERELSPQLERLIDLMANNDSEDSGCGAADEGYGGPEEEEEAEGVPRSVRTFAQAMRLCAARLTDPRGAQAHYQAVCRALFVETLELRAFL
Experimental: as §1, §2, §3, §4, §5, §6, §7, §8, §9

KIND2 [3] = molecular target: T2, KIND2; experiment: Differential scanning fluorimetry (DSF) thermal shift, KIND2
KIND1 [4] = molecular target: T1, KIND1; experiment: Binding to KIND1 (method not given)
KIND1 [5] = molecular target: T1, KIND1; experiment: Differential scanning fluorimetry (DSF) thermal shift, KIND1; assay type: binding; conditions: 1 mM fragment, 2% DMSO
[6] = 2.44-2500 μM, 2.49 μM KIND2, read-out: KIND2 IC50

T1 sequence (Q08AE8 36-236): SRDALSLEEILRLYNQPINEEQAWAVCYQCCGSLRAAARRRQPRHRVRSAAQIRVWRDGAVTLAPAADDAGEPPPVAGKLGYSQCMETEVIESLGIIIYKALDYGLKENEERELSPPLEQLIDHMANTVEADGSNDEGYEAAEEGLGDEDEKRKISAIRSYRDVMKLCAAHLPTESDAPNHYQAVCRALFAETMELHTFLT

| Compound | IC50 (KIND1 [1]) [µM] | IC50 (KIND2 [2]; [6]) [µM] | ΔTm at 1000 µM (KIND2 [3]; read-out: ΔTm) [°C] | IC50 (KIND2 [2]; Table 2, KIND2, read-out: IC50) [µM] | further results |
| --- | --- | --- | --- | --- | --- |
| N[C@H]1CCN(c2ccnc3cc(Cl)ccc23)C1 [compound 3, (S)-1-(7-Chloroquinolin-4-yl)pyrrolidin-3-amine] | > 2500 | > 2500 |  |  |  |
| NCCNc1ccnc2cc(C(F)(F)F)ccc12 [compound 9, N^1-(7-(Trifluoromethyl)quinolin-4-yl)ethane-1,2-diamine] |  |  | -0.4 | > 2500 |  |
| Cc1ccc2c(NCCN)ccnc2c1 [compound 10, N^1-(7-Methylquinolin-4-yl)ethane-1,2-diamine] |  |  | 2 | > 2500 |  |
| N[C@@H]1CCN(c2ccnc3cc(Cl)ccc23)C1 [compound 4, (R)-1-(7-Chloroquinolin-4-yl)pyrrolidin-3-amine] | > 2500 | > 2500 |  |  |  |
| NCCNc1ccnc2cc(Cl)ccc12 [F408, N^1-(7-Chloroquinolin-4-yl)ethane-1,2-diamine] | > 2500 |  |  |  | binding to KIND1 (KIND1 [4]): did not bind |
| NCCNc1ccnc2c(F)cccc12 [compound 18, N^1-(8-Fluoroquinolin-4-yl)ethane-1,2-diamine] |  |  | 0.8 | > 2500 | KIND2/FSI inhibitory activity in words (KIND2 [2]): complete loss of activity |
| OCCCNc1ccnc2cc(Cl)ccc12 [F410] | > 2500 | > 2500 |  |  | ΔTm at 1000 µM (KIND2 [3]; read-out: KIND2 ΔTm): -0.5 °C; ΔTm at 1000 µM (KIND1 [5]): -0.4 °C; KIND2/FSI inhibitory activity in words (KIND2 [2]): complete loss in activity |
| N[C@H]1CCCN(c2ccnc3cc(Cl)ccc23)C1 [compound 5, (3S)-1-(7-Chloroquinolin-4-yl)piperidin-3-amine] | > 2500 | > 2500 |  |  |  |
| CN(C)CCNc1ccnc2cc(Cl)ccc12 [compound 2, N^1-(7-Chloroquinolin-4-yl)-N^2,N^2-dimethylethane-1,2-diamine] | > 2500 | > 2500 |  |  | KIND2/FSI inhibitory activity in words (KIND2 [2]): loss of potency |
| N[C@@H]1CCCN(c2ccnc3cc(Cl)ccc23)C1 [compound 6, (3R)-1-(7-Chloroquinolin-4-yl)piperidin-3-amine] | > 2500 | > 2500 |  |  |  |
| CN(C)CCCNc1ccnc2cc(Cl)ccc12 [F666] | > 2500 |  |  |  |  |
| Clc1ccc2c(N3CCNCC3)ccnc2c1 [F671] | > 2500 | > 2500 |  |  | ΔTm at 1000 µM (KIND2 [3]; read-out: KIND2 ΔTm): -2 °C; ΔTm at 1000 µM (KIND1 [5]): -1 °C; KIND2/FSI inhibitory activity in words (KIND2 [2]): complete drop in potency |
| NCCCCNc1ccnc2cc(Cl)ccc12 [F667] | > 2500 |  |  |  |  |
| NCCNc1ccnc2c(Cl)cccc12 [compound 17, N^1-(8-Chloroquinolin-4-yl)ethane-1,2-diamine] |  |  | 0.8 | > 2500 | KIND2/FSI inhibitory activity in words (KIND2 [2]): complete loss of activity |
| Nc1ccnc2cc(Cl)ccc12 [F668] | > 2500 | > 2500 |  |  | ΔTm at 1000 µM (KIND2 [3]; read-out: KIND2 ΔTm): -1 °C; ΔTm at 1000 µM (KIND1 [5]): -0.4 °C |
| Clc1ccc2c(N[C@@H]3CCCNC3)ccnc2c1 [compound 8, (R)-7-Chloro-N-(piperidin-3-yl)quinolin-4-amine] | > 2500 | > 2500 |  |  |  |
| NCCCNc1ccnc2cc(Cl)ccc12 [F409] | > 2500 |  |  |  |  |
| NCCNc1ccnc2cc(Br)ccc12 [compound 11, N^1-(7-Bromoquinolin-4-yl)ethane-1,2-diamine] |  |  | 1.2 | > 2500 |  |
| NCCNc1ccnc2cc(OCc3ccccc3)ccc12 [compound 16, N^1-[7-(Benzyloxy)quinolin-4-yl]ethane-1,2-diamine] |  |  | 0 | > 2500 |  |
| OCCNc1ccnc2cc(Cl)ccc12 [compound 1, 2-((7-Chloroquinolin-4-yl)amino)ethan-1-ol] | > 2500 | > 2500 |  |  |  |
| Clc1ccc2c(N[C@H]3CCCNC3)ccnc2c1 [compound 7, (S)-7-Chloro-N-(piperidin-3-yl)quinolin-4-amine] | > 2500 | > 2500 |  |  |  |
| Clc1ccc2c(NCCCN3CCOCC3)ccnc2c1 [F669] | > 2500 | > 2500 |  |  | ΔTm at 1000 µM (KIND2 [3]; read-out: KIND2 ΔTm): -1 °C; ΔTm at 1000 µM (KIND1 [5]): -0.5 °C; KIND2/FSI inhibitory activity in words (KIND2 [2]): complete drop in potency |
| NCCNc1ccnc2cc(Oc3ccccc3)ccc12 [compound 15, N^1-(7-Phenoxyquinolin-4-yl)ethane-1,2-diamine] |  |  | -0.1 | > 2500 |  |
